What was measured:
Culex quinquefasciatus = experiment: Lethality (knockdown time) on contact with IMI polymorph microcrystals in petri dish, Culex mosquitoes; format: in vivo; conditions: Culex females; median knockdown time; 0.100 mg microcrystals per 100 mm dish
Description: (§1) Lethality measurements for IMI polymorphs. Microcrystals of IMI Forms I, IV, VI, and IX were prepared by grinding respective single crystals using a mortar and pestle. Their compositions were then analyzed by powder X-ray diffraction (PXRD). Lethality measurements were performed in triplicate for each solid-state form, each accompanied by three controls (no insecticide). 2.0 mg of microcrystals was added to a 35 mm diameter polystyrene petri dish, which was subsequently shaken to disperse the microcrystals throughout the petri dish. Microcrystals was added to a polystyrene petri dish (2.000 mg microcrystals per 35 mm diameter dish for fruit flies; 0.100 mg microcrystals per 100 mm diameter dish for mosquitoes), which was subsequently shaken to disperse the microcrystals throughout the petri dish. Adult mosquitoes (Ae. aegypti, A. quadrimaculatus or C. quinquefasciatus) or fruit flies (D. melanogaster) were sedated with carbon dioxide and 30 female mosquitoes or 20 flies were transferred to each petri dish. The top of the dish was then placed over the bottom and the motion of the insects was recorded with a video camera (Sony HDR-CX455). The knockdown time was measured for each individual insect, with knockdown associated with an insect laying on the bottom surface of the petri dish in a supine position without moving from its original position after 10 seconds.
(§2) Statistical analyses. Logistic regression of knockdown-time curves was preformed to obtain the median knockdown time (KT50) of the test flies and mosquitoes, the 95% confidence intervals (CI), slopes, and standard errors (SE) using Qcal software.

[1] = test system: Anopheles quadrimaculatus; experiment: Lethality (knockdown time) on contact with IMI polymorph microcrystals in petri dish, Anopheles mosquitoes; format: in vivo; conditions: Anopheles females; median knockdown time; 0.100 mg microcrystals per 100 mm dish
Description: as §1, §2

[2] = format: physicochemical
Description: IMI polymorphs exposed in open air at ambient temperature are typically stable for at least 6 months. Although the polymorphic forms were distinguishable by visual inspection (from their interference colors between crossed polarizers and morphologies), their identity and any phase transformations were always corroborated by micro-Raman spectroscopy and PXRD. Form IX held at 95° C. on a microscope hot stage in air transformed to Form V in 3 min, which then converted to Form I at 110° C. in 2 min. Form I also can nucleate directly on the surface of Form IX at T>70° C. Form IX crystals confined between glass slides nucleate Form I, V or VI within Form IX at 80° C. within 1 min. […] Form VI transforms to III when they were in contact at 110° C.

Aedes aegypti = experiment: Lethality (knockdown time) on contact with IMI polymorph microcrystals in petri dish, Aedes mosquitoes; format: in vivo; conditions: for KT50 (95% CI): Aedes females, median knockdown time, 0.100 mg microcrystals per 100 mm dish
Description: as §1, §2

Drosophila melanogaster = experiment: Lethality (knockdown time) on contact with IMI polymorph microcrystals in petri dish, fruit flies; format: in vivo; conditions: for KT50 (95% CI): median knockdown time, 2.0 mg microcrystals per 35 mm dish; for times faster-acting than Form I: ratio of KT50 values
Description: as §1, §2
IMI Forms IX, VI, IV were selected for lethality comparison with the commercial Form I, collectively representing a quartet spanning a wide range of free energies. […] A video camera was used to record the knockdown times—a proxy for lethality—for each insect. KT50 values, the times required for 50% of the insects to become immobile and supine, were calculated by logistic regression of knockdown-time curves (FIGS. 34A-34P). Shorter KT50 values correspond to greater lethality. Accordingly, Forms IX, VI and IV were 5.7, 2.5 and 1.8 times faster-acting than Form I.

Aedes = experiment: Lethality measurement of IMI vapor, Aedes; format: in vivo, Aedes aegypti
Description: (§3) Crystalline insecticide was added to an opened glass vial tapped to the bottom of a petri dish, which was subsequently covered with porous polyester substrate. Female Aedes and Drosophila were sedated with carbon dioxide and were transferred onto the porous substrate. An inverted petri dish was then placed over the polyester substrate to seal the assembly. The motion of the Aedes and Drosophila was recorded with a video camera. An opened glass vial containing 2.0 mg IMI microcrystals was tapped to the bottom of the petri dish (FIGS. 35A-35E).

Drosophila = experiment: Lethality measurement of IMI vapor, Drosophila; format: in vivo, Drosophila melanogaster
Description: as §3

[3] = 2.0 mg IMI microcrystals in opened glass vial under porous polyester substrate

Row | SMILES | KT50 (95% CI) (Culex quinquefasciatus) | KT50 (95% CI) [1] | KT50 (95% CI) (Aedes aegypti) | KT50 (95% CI) (Drosophila melanogaster) | times faster-acting than Form I (Drosophila melanogaster) [times] | also measured
1 | O=[N+]([O-])NC1=NCCN1Cc1ccc(Cl)nc1 [Form I, 1-[(6-chloro-3-pyridinyl)-methyl]-N-nitro-2-imidazolidinimine, reference compound] | 573 (568-581) min | 524 (515-534) min | 643 (621-664) min | 562 (536-589) min |  | thermodynamic stability [2]: the most thermodynamically stable crystal form
2 | O=[N+]([O-])N=C1NCCN1Cc1ccc(Cl)nc1 [Form IV, 1-[(6-chloro-3-pyridinyl)-methyl]-N-nitro-2-imidazolidinimine] | 311 (309-313) min | 220 (216-224) min | 335 (329-342) min | 321 (302-343) min | 1.8 | 
3 | O=[N+]([O-])NC1=NCCN1Cc1ccc(Cl)nc1 [Form IX, 1-[(6-chloro-3-pyridinyl)-methyl]-N-nitro-2-imidazolidinimine] | 89 (88-91) min | 84 (82-86) min | 70 (68-71) min | 99 (93-105) min | 5.7 | kinetic stability against transformation to other polymorphs [2]: kinetically stable against transformations to other polymorphs; time to nucleation of Form I, V or VI within the form ([2]; crystals confined between glass slides, 80° C.): ≤ 1 min; time of transformation to Form V ([2]; held at 95° C. on microscope hot stage in air): 3 min
4 | O=[N+]([O-])N=C1NCCN1Cc1ccc(Cl)nc1 [Form V, 1-[(6-chloro-3-pyridinyl)-methyl]-N-nitro-2-imidazolidinimine] |  |  |  |  |  | time of conversion to Form I ([2]; at 110° C.): 2 min
5 | O=[N+]([O-])N=C1NCCN1Cc1ccc(Cl)nc1 [Form VI, 1-[(6-chloro-3-pyridinyl)-methyl]-N-nitro-2-imidazolidinimine] | 192 (189-195) min | 143 (141-144) min | 152 (147-157) min | 223 (210-238) min | 2.5 | 
6 | O=[N+]([O-])N=C1NCCN1Cc1ccc(Cl)nc1 [IMI, 1-[(6-chloro-3-pyridinyl)-methyl]-N-nitro-2-imidazolidinimine] |  |  |  |  |  | effect of exposure to IMI vapor (Aedes; [3]): remained viable with no nerve firing symptoms; effect of exposure to IMI vapor (Aedes; after 12 hours): remained viable with no nerve firing symptoms; time within which all insects were knocked down (Aedes aegypti; Aedes, direct contact with the same amount of IMI microcrystals in petri dishes): ≤ 10 h; effect of exposure to IMI vapor (Drosophila; [3]): remained viable with no nerve firing symptoms; effect of exposure to IMI vapor (Drosophila; after 12 hours): remained viable with no nerve firing symptoms; time within which all insects were knocked down (Drosophila melanogaster; direct contact with the same amount of IMI microcrystals in petri dishes): ≤ 10 h
